Experimental data: PMC11206988, “Study on the Effect of Pharmaceutical Excipient PEG400 on the Pharmacokinetics of Baicalin in Cells Based on MRP2, MRP3, and BCRP Efflux Transporters” (Pharmaceutics, 2024)
Like-named read-outs stand apart in the source and are kept apart here.

Legend:
Assay type in all cases: in vitro ADME
[1] = Transport of baicalin across MDCK II-WT cell monolayer (transwell); settings: dog, MDCK, pH 7.4, MDCK II-WT; for efflux ratio at 120 min, 100 μM: read-out: ER
Procedure: (§1) The cells were inoculated at a density of 0.5 mL (1 × 10^5) in the upper layer of the transwell plate (AP side), and the culture was changed daily after the lower layer was added with 1.5 mL of complete medium without cells every other day. After 5–7 days of growth, the supernatant was aspirated and discarded, and the cell monolayer was rinsed twice with 37 °C Hank’s Balanced Salt Solution (HBSS, pH 7.4). The electrical resistance of the cell monolayer compartments was measured with a resistivity meter (TEER), and the integrity of the cell monolayer was monitored using TEER. The differentiation of MDCK II-WT, MDCK II-MRP2, MDCK II-MRP3, and MDCK II-BCRP cells was examined by determining sodium fluorescein permeability prior to transit experiments. This was done in order to determine the integrity of the cell monolayer. When the TEER value of the cell monolayer was greater than 150 Ω·cm^2 and the MDCK II-MRP2, MDCK II-MRP3, and MDCK II-BCRP sodium fluorescein permeability was less than 0.5 × 10^−6 cm/s or the MDCK II-WT sodium fluorescein permeability was less than 1 × 10^−6 cm/s, the cell monolayer was considered intact and suitable for transit experiments. TEER = (TEERcell monolayer − TEERblank) × Aarea(1) wherein TEERcell monolayer is the resistance of the cell monolayer read directly from the Millicell ERS-2 resistivity meter, and TEERblank is the resistance read by inserting a blank HBSS (no cells) only. Aarea is the surface area of the filter membrane, 1.12 cm^2.
(§2) In this experiment, a 100 μM baicalin solution (dissolved in HBSS) containing different concentrations of PEG400 (0.25%, 0.5%, and 1%) was employed as the test solution, while a solution without PEG400 was used as the blank test solution, which was added to AP or BL chambers, respectively. In the top to basolateral (AP-BL) transport experiment, the 0.5 mL sample added to the apical side (AP) was utilized as the supply room, and the HBSS preheated to 1.5 mL 37 °C was added to the basolateral (BL) as the receiving chamber. Conversely, in the basal low lateral to top (BL-AP) transport experiment, the 1.5 mL sample (dissolved in HBSS) was added to the BL side as the supply room, and the 0.5 mL preheated HBSS was added as a receiving room on the AP side. Once the aforementioned steps had been completed, the transwell was placed on a 37 °C thermostatic oscillator at 60 r/min, and 100 μL was withdrawn from the receiving cell or 10 μL from the supply chamber at 30, 60, 90, and 120 min, depending on the experiment, and replenished with an equal volume of blank 37 °C preheated HBSS. The samples were utilized to precipitate the proteins with 100 μL of methanol containing the internal standard for 10 min. After centrifugation at 16,000× g for 15 min at 4 °C, the supernatant was collected in a volume of 70 μL. The contents were determined by UPLC-MS/MS, and apparent permeability coefficients (PAPP) and efflux ratios (ER) were calculated.
(§3) The formulas for calculating Papp and ER of monolayer and monolayer are as follows:(2) Papp=dQ/dt/AC0 wherein dQ/dt (ng/mL·s) is the transit rate (ng/mL·s); A is the membrane area (1.12 cm^2); and C0 (ng/mL) is the initial concentration of the sample in the supply chamber. ER = PappBL-AP/PappAP-BL (3) wherein PappBL-AP is the apparent permeability coefficient when the BL is added to the sample, and PappAP-BL is the apparent permeability coefficient when the sample is added at the top side (AP).

MDCK II-WT cells = assay: as above; settings: MDCK II-WT
Procedure: as §1, §2, §3

BCRP = target: T1, BCRP (Homo sapiens, UniProt Q9UNQ0); assay: Transport of baicalin across MDCK II-BCRP cell monolayer (transwell); settings: pH 7.4, MDCK II-BCRP
T1 construct: expressed in transfected cells; host or cells: MDCK II
T1 sequence (Q9UNQ0 1-655): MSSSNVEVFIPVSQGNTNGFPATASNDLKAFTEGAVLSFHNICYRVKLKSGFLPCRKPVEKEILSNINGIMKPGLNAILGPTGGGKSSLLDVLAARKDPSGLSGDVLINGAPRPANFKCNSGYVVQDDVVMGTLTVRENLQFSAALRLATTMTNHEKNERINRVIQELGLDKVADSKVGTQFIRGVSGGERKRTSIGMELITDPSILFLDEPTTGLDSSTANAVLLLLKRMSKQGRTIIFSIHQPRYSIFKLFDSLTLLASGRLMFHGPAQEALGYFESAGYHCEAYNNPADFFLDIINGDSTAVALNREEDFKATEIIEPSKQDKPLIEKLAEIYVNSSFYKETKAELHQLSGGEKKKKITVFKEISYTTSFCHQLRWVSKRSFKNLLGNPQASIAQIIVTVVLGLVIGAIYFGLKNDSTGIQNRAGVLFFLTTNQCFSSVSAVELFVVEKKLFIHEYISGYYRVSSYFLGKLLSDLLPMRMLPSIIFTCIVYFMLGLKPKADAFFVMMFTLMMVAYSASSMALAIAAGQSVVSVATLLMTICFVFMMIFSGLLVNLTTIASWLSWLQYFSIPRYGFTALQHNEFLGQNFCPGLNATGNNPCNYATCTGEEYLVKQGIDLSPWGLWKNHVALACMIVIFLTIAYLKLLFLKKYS
Procedure: as §1, §2, §3

O=C(O)[C@H]1O[C@@H](Oc2cc3oc(-c4ccccc4)cc(=O)c3c(O)c2O)[C@H](O)[C@@H](O)[C@@H]1O [BG, Baicalein-7-O-β-D-glucuronide]
Papp A→B at 120 min, 100 μM ([1]; 100 μM BG + 0.25% PEG400): 4.57 ± 1.08 ×10⁻⁶ cm/s | Papp B→A at 120 min, 100 μM ([1]; 100 μM BG + 0.25% PEG400): 7.94 ± 0.99 ×10⁻⁶ cm/s | efflux ratio at 120 min, 100 μM ([1]; 100 μM BG + 0.25% PEG400): 1.94 ± 0.27 | Papp A→B at 120 min, 100 μM ([1]; 100 μM BG + 0.5% PEG400): 5.24 ± 0.53 ×10⁻⁶ cm/s | Papp B→A at 120 min, 100 μM ([1]; 100 μM BG + 0.5% PEG400): 6.78 ± 1.19 ×10⁻⁶ cm/s | efflux ratio at 120 min, 100 μM ([1]; 100 μM BG + 0.5% PEG400): 1.53 ± 0.14 | Papp A→B at 120 min, 100 μM ([1]; 100 μM BG + 1% PEG400): 5.47 ± 0.94 ×10⁻⁶ cm/s | Papp B→A at 120 min, 100 μM ([1]; 100 μM BG + 1% PEG400): 3.61 ± 0.26 ×10⁻⁶ cm/s | efflux ratio at 120 min, 100 μM ([1]; 100 μM BG + 1% PEG400): 1.19 ± 0.12 | Papp A→B at 120 min, 100 μM ([1]; 100 μM BG alone): 3.18 ± 0.07 ×10⁻⁶ cm/s | Papp B→A at 120 min, 100 μM ([1]; 100 μM BG alone): 11.6 ± 1 ×10⁻⁶ cm/s | efflux ratio at 120 min, 100 μM ([1]; 100 μM BG alone): 2.58 ± 0.27 | ER (MDCK II-WT cells; 100 μM BG + 0.25% PEG400): 1.8 ± 0.44 | ER (MDCK II-WT cells; 100 μM BG + 0.5% PEG400): 1.29 ± 0.11 | ER (MDCK II-WT cells; 100 μM BG + 1% PEG400): 0.67 ± 0.07 | ER (MDCK II-WT cells; 100 μM BG alone): 3.64 ± 0.28 | Papp A→B at 120 min, 100 μM (BCRP; 100 μM BG + 0.25% PEG400): 5.64 ± 0.48 ×10⁻⁶ cm/s | Papp B→A at 120 min, 100 μM (BCRP; 100 μM BG + 0.25% PEG400): 8.98 ± 0.42 ×10⁻⁶ cm/s | efflux ratio at 120 min, 100 μM (BCRP; 100 μM BG + 0.25% PEG400, read-out: ER): 1.59 ± 0.06 | Papp A→B at 120 min, 100 μM (BCRP; 100 μM BG + 0.5% PEG400): 7.4 ± 0.43 ×10⁻⁶ cm/s | Papp B→A at 120 min, 100 μM (BCRP; 100 μM BG + 0.5% PEG400): 7.51 ± 0.47 ×10⁻⁶ cm/s | efflux ratio at 120 min, 100 μM (BCRP; 100 μM BG + 0.5% PEG400, read-out: ER): 1.02 ± 0.04 | Papp A→B at 120 min, 100 μM (BCRP; 100 μM BG + 1% PEG400): 8.59 ± 0.19 ×10⁻⁶ cm/s | Papp B→A at 120 min, 100 μM (BCRP; 100 μM BG + 1% PEG400): 6.9 ± 0.04 ×10⁻⁶ cm/s | efflux ratio at 120 min, 100 μM (BCRP; 100 μM BG + 1% PEG400, read-out: ER): 0.8 ± 0.02 | Papp A→B at 120 min, 100 μM (BCRP; 100 μM BG alone): 3.43 ± 0.07 ×10⁻⁶ cm/s | Papp B→A at 120 min, 100 μM (BCRP; 100 μM BG alone): 10.34 ± 0.02 ×10⁻⁶ cm/s | efflux ratio at 120 min, 100 μM (BCRP; 100 μM BG alone, read-out: ER): 3.01 ± 0.05
